Experimental data taken from patent US20240091324A1, “GASTROINTESTINAL HEALTH COMPOSITION” (priority 2019, published 2024).

System: IL-8 release from Caco-2 monolayers
Assay: Release of IL-8 from polarised Caco-2 monolayers stimulated with LPS, TNF-α, IFN-β
Format: cell-based, human
Conditions: for % increase in anti-inflammatory activity compared to equivalent formulation without bromelain (difference of means): plus 80 ug/ml bromelain
Experimental: Inflammatory model of Caco-2 polarised monolayer stimulated with inflammatory mediators LPS, TNF-α, IFN-β: Polarised Caco-2 models were generated as previously described. When cell cultures reached a baseline TER of >1000/cm^2, the monolayers were stimulated by addition of 0.6 ml containing 50 ng/ml IFN-β, 10 μg/ml LPS and 5 ng/ml TNFα to the basolateral compartment. Immediately after the addition of the stimulation cocktail 0.25 ml of GaRP±0-80 μg/ml bromelain was applied to the apical compartment. After the 24 h incubation culture supernatants from the apical side were collected for quantitation of IL-8.
The human colorectal adenocarcinoma cell-line C2BBe1 was grown and maintained in Dulbecco's modified Eagle's medium (DMEM) supplemented with 10% v/v fetal bovine serum (FBS), 4 mM L-glutamine, 100 U/ml penicillin and […] streptomycin. All experiments were conducted on C2BBe1 cells within 12 passages after thawing.
In an experiment to evaluate the anti-inflammatory effect of bromelain or various GaRP formulations, 0.25 ml of test samples was applied to the apical side for 24 h, at the same time 0.6 ml of a cocktail containing 50 ng/ml IFN+10 ug/ml LPS+5 ng/ml TNF was added to the basolateral side in this model. After the 24 h incubation culture supernatants from the apical side were collected and IL-8 quantitated by ELISA.

[1] = formulation or component plus 80 ug/ml bromelain, 24 h
[2] = without bromelain, test sample apical 24 h, IFN+LPS+TNF cocktail basolateral

SMILES | % inhibition of the release of IL-8 Median ± SEM [1] | % increase in anti-inflammatory activity compared to equivalent formulation without bromelain (difference of means) | % inhibition of the release of IL-8 Median ± SEM [2]
N[C@@H](Cc1c[nH]c2ccccc12)C(=O)O [L-tryptophan] | 76 ± 2% | 62% | 14 ± 7%
NC(=O)CC[C@H](N)C(=O)O [L-glutamine] | 83 ± 1% | 72% | 11 ± 7%
